Source: patent US20260152487A1 (Sitryx Therapeutics Limited, priority 2021, published 2026)

Key:
A549 cells = test: A549 cell proliferation in low-serine medium (CellTiter-Glo 2.0 viable cell number); type: cell-based; details: Homo sapiens, 72 h, 3 days, Assay Medium with 20 μM L-serine
In short: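 A549 cells (600/well) were plated overnight and then exposed for 3 days at 37 °C to compound in Basal Medium Eagle with 3% dialysed FBS, 2 mM glutamine and 20 μM L-serine. Viable cell number was read by CellTiter-Glo luminescence and normalized to time-zero and DMSO controls. IC50 came from a 4-parameter logistic fit.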

recombinant human PKM2 = target: T1, recombinant human PKM2 (Homo sapiens, UniProt P14618); test: Human PKM2 activation assay (Kinase-Glo Plus luminescent detection of generated ATP); type: biochemical; details: for Emax: percentage activation normalised to DMSO vehicle (LOW) and 5 μM TEPP-46 (HIGH), read-out: hPKM2 Emax; for EC50: recombinant human PKM2 activation, 4-parameter logistic fit, read-out: hPKM2 EC50
T1 construct: His (N); purchased R&D Systems
T1 sequence (P14618 2-531 limits assumed): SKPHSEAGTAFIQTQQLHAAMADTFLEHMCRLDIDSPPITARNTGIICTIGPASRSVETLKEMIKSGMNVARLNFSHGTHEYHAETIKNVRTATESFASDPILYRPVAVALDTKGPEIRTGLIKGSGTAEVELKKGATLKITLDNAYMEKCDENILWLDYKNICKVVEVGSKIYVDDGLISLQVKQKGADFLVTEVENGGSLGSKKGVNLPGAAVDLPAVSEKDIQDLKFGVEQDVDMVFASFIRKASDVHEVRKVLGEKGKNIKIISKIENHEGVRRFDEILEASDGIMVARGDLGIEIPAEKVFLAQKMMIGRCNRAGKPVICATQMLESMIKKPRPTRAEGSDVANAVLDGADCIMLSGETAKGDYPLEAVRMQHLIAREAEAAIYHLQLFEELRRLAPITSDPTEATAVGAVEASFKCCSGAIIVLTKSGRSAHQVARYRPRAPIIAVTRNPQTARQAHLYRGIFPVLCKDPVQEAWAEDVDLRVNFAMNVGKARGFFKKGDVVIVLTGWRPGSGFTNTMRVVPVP
In short: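 Luminescent ATP detection (Kinase-Glo Plus, 15 min, 26 °C) followed a 60 min, 26 °C shaken reaction of compound with […] His-tagged human PKM2, PEP and ADP in imidazole/KCl/MgCl2 buffer with Tween20 and BSA, pH 7.2.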

recombinant human PKLR = target: T2, recombinant human PKLR (Homo sapiens, UniProt P30613); test: Human PKLR activation assay (Kinase-Glo Plus luminescent detection of generated ATP); type: biochemical; details: for EC50: activation of recombinant human PKLR, 4-parameter logistic fit, read-out: hPKLR EC50; for Emax: percentage activation normalised to DMSO vehicle (LOW) and 5 μM TEPP-46 (HIGH) controls, read-out: hPKLR Emax (%)
T2 construct: His (N); purchased R&D Systems
T2 sequence (P30613 whole entry): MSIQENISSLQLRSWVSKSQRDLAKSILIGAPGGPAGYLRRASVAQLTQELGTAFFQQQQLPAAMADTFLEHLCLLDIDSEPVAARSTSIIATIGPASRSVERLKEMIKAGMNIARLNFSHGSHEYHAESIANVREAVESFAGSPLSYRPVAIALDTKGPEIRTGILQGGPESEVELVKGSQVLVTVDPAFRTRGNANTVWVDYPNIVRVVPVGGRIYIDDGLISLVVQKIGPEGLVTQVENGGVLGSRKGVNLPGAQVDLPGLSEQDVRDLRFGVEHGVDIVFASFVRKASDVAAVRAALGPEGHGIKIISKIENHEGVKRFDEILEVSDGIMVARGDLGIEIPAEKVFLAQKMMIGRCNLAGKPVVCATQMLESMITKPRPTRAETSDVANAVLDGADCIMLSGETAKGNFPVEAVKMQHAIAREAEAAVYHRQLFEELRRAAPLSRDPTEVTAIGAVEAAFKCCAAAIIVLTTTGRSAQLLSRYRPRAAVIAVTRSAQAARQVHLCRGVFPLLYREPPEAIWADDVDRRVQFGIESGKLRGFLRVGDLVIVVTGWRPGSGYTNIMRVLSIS

IC50 (A549 cells)	Emax (recombinant human PKM2)	EC50 (recombinant human PKM2)	EC50 (recombinant human PKLR)	Emax (recombinant human PKLR)	Structure (SMILES)
1.2 nM	129%	27.6 nM	4.7 nM	159%	COc1ccc(S(=O)(=O)c2ccc3c(=O)n(Cc4ccn(C5CC5)n4)ncc3c2)cc1 [Example 1, 2-((1-cyclopropyl-1H-pyrazol-3-yl)methyl)-6-((4-methoxyphenyl)sulfonyl)phthalazin-1(2H)-one]
1.5 nM	115%	40.1 nM	5.3 nM	149%	Nc1cccc(Cn2ncc3cc(S(=O)(=O)c4ccccc4)ccc3c2=O)n1 [Example 38, 2-((6-aminopyridin-2-yl)methyl)-6-(phenylsulfonyl)phthalazin-1(2H)-one]
2 nM	111%	42.1 nM	15.8 nM	109%	COc1ccc(Cn2ncc3cc(S(=O)(=O)c4ccccc4)ccc3c2=O)cn1 [Example 41, 2-((6-methoxypyridin-3-yl)methyl)-6-(phenylsulfonyl)phthalazin-1(2H)-one]
2.2 nM	112%	45.5 nM	3.1 nM	142%	COc1ccc(S(=O)(=O)c2ccc3c(=O)n(Cc4cc(C)[nH]n4)ncc3c2)cc1 [Example 54, 6-((4-methoxyphenyl)sulfonyl)-2-((5-methyl-1H-pyrazol-3-yl)methyl)phthalazin-1(2H)-one]
1.7 nM	98%	51.9 nM	10.1 nM	131%	COc1ccc(S(=O)(=O)c2ccc3c(=O)n(Cc4cccnc4O)ncc3c2)cc1 [Example 56, 2-((2-hydroxypyridin-3-yl)methyl)-6-((4-methoxyphenyl)sulfonyl)phthalazin-1(2H)-one]
3.6 nM	110%	100 nM	34.1 nM	122%	Cn1ccc(Cn2ncc3cc(S(=O)(=O)c4ccccc4)ccc3c2=O)n1 [Example 60, 2-((1-methyl-1H-pyrazol-3-yl)methyl)-6-(phenylsulfonyl)phthalazin-1(2H)-one]
2.2 nM	117%	70.8 nM	17.1 nM	134%	O=c1c2ccc(S(=O)(=O)c3ccccc3)cc2cnn1Cc1cc[nH]n1 [Example 68, 2-((1H-pyrazol-3-yl)methyl)-6-(phenylsulfonyl)phthalazin-1(2H)-one]
3.5 nM	99.9%	30.2 nM	14 nM	117%	O=c1c2ccc(S(=O)(=O)c3ccccc3)cc2cnn1Cc1ccn(C2CC2)n1 [Example 73, 2-((1-cyclopropyl-1H-pyrazol-3-yl)methyl)-6-(phenylsulfonyl)phthalazin-1(2H)-one]
2.2 nM	108%	47.7 nM	11.5 nM	137%	Cc1cccc(Cn2ncc3cc(S(=O)(=O)c4ccccc4)ccc3c2=O)n1 [Example 75, 2-((6-methylpyridin-2-yl)methyl)-6-(phenylsulfonyl)phthalazin-1(2H)-one]
1.7 nM	101%	50.8 nM	9.6 nM	135%	Cc1cn(C)nc1Cn1ncc2cc(S(=O)(=O)c3ccccc3)ccc2c1=O [Example 89, 2-((1,4-dimethyl-1H-pyrazol-3-yl)methyl)-6-(phenylsulfonyl)phthalazin-1(2H)-one]
3 nM	106%	55.7 nM	10.1 nM	139%	Cc1cc(Cn2ncc3cc(S(=O)(=O)c4ccccc4)ccc3c2=O)nn1C [Example 90, 2-((1,5-dimethyl-1H-pyrazol-3-yl)methyl)-6-(phenylsulfonyl)phthalazin-1(2H)-one]
3.3 nM	116%	62.6 nM	9.3 nM	128%	Cc1cc(Cn2ncc3cc(S(=O)(=O)c4ccccc4)ccc3c2=O)n[nH]1 [Example 96, 2-((5-methyl-1H-pyrazol-3-yl)methyl)-6-(phenylsulfonyl)phthalazin-1(2H)-one]
1.2 nM	104%	56.5 nM			COc1ccc(S(=O)(=O)c2ccc3c(=O)n(Cc4n[nH]cc4C)ncc3c2)cc1 [Example 104, 6-((4-methoxyphenyl)sulfonyl)-2-((4-methyl-1H-pyrazol-3-yl)methyl)phthalazin-1(2H)-one]
6.2 nM	93%	142 nM			COc1ccc(S(=O)(=O)c2ccc3c(=O)n(Cc4ccc(OC)cc4C(N)=O)ncc3c2)cc1 [Example 106, 5-methoxy-2-((6-(4-methoxyphenylsulfonyl)-1-oxophthalazin-2(1H)-yl)methyl)benzamide]
2 nM	132%	178 nM			O=c1c2ccc(S(=O)(=O)c3ccccc3)cc2cnn1Cc1cc2ccccn2n1 [Example 108, 6-(phenylsulfonyl)-2-(pyrazolo[1,5-a]pyridin-2-ylmethyl)phthalazin-1(2H)-one]
